# Reference: patent US6603060B1, “Method for regulating cell death” (National Institute of Agrobiological Sciences, priority 1998, dated 2003)
# *1 amine or outer side, *2 acyl side, *3 side chain or, on linkers, in order; H or OH if unused. Where a SMILES comes first, the peptide text is derived from it. Bridges are numbered along the chain shown (N, C = ends). Roman numbers before positions name the chains, in order. [ ]: non-standard residue; d: D form. Actinocin(9to1) = Cc1c2oc3c(C)ccc(C(=O)[*:1])c3nc-2c(C(=O)[*:2])c(N)c1=O; NMeV = CN[C@H](C(=O)O)C(C)C; Sar = CNCC(=O)O
# Tests used:
# [1] = system: TMV-infected NN tobacco leaves; assay: Induction of necrotic lesion formation by protease inhibitors in TMV-inoculated detached leaves, nn tobacco; format: in vivo, N. tabacum cv. Samsun nn; parameters: key: (−) = Necrotic lesion not induced; (+) = Necrotic lesion induced
# Protocol: (§1) The following reagents were used as inhibitors: APMSF, Aprotinin and 3,4-D as serine protease inhibitors, E-64 as a cysteine protease inhibitor, EDTA as a metalloprotease inhibitor, and leupeptin as a serine/cysteine protease inhibitor. Each inhibitor was prepared as described below.
# (§2) For EDTA (Wako Pure Chemicals. Ind. (Osaka, Japan), an aqueous solution adjusted to pH 8.0 by NaOH was used.
# (§3) For E-64 (Boehringer Mannheim, Germany), a 50 mM solution in methanol/H2O (1:1, v/v) was used as a stock solution and subsequently diluted in water to the concentrations indicated below.
# (§4) For 3,4-D (Boehringer Mannheim, Germany), a 50 mM solution in dimethyl sulfoxide was used as a stock solution and subsequently diluted in water to the concentrations indicated below.
# (§5) Leupeptin, Aprotinin, and APMSP were each used as an aqueous solution.
# (§6) In this example, EDTA was used at concentrations of 1 mM, […] and 50 mM, and other inhibitors were used at concentrations of 0.01 mM, 0.1 mM and 1 mM.
# (§7) Prior to reagent treatment, tobacco leaves were detached, inoculated with TMV (8 μg/ml in a phosphate buffer (pH 7.0)) or mock (buffer alone), and incubated at 30° C. for 40 hr. After the incubation, petioles of the leaves were put into vials containing 0.5 ml of inhibitor solutions. The solution was absorbed through the petioles and sterile water was added to the vials within 1 hr. The treated leaves were then further incubated at 30° C.
# [2] = system: TMV-infected NN tobacco leaves; assay: Induction of necrotic lesion formation by protease inhibitors in TMV-inoculated detached leaves, NN tobacco; format: in vivo, N. tabacum cv. Samsun NN; parameters: key to induction of necrotic lesion formation, Tobacco cv. NN: (−) = Necrotic lesion not induced; (+) = Necrotic lesion induced
# Protocol: as §1, §2, §3, §4, §5, §6, §7
# TMV-infected NN tobacco [3] = assay: Induction of HR by EDTA and DCMU treatments, nn tobacco; format: in vivo, N. tabacum cv. Samsun nn; settings: 30° C., EDTA 5 mM, DCMU 100 mM, necrotic lesion, PR-1 expression, salicylic acid
# Protocol: (§8) To perform an inhibitor treatment with NN tobacco and nn tobacco, EDTA, a metalloprotease inhibitor, and DCMU (3-(3,4-dichlorophenyl)-1,1-dimethylurea) (Sigma Chemical Co., St Louis, Mo., USA), an inhibitor of electron transport in a photochemical system II (PSII), were used as described in Example 8. An EDTA solution was prepared as described in Example 8. The DCMU was dissolved in methanol. The concentration of the inhibitors were 5 mM and 100 mM, respectively.
# (§9) After the treatment, leavs were further incubated at 30° C., then examined regarding the followig: formation of a necrotic lesion; expression of PR-1; presence of a marker gene for the HR protein; and accumulation of salicylic acid. For expression of the PR gene, Northern analysis was performed as described in Example 4. Salicylic acid was quantitated as follows.
# (§10) Free salicylic acid was extracted and quantitated as described by Malamy et al. (The Plant Cell, 4, 359 (1992)). HPLC analysis was performed on a μBondasphere, 5-μm C-18 (3.9 mm×15 cm) column maintained at 40° C. Isocratic separation was conducted with 23% (v/v) methanol in 20 mM sodium acetate (pH 5.0). Fluorescence detection was performed at using a Model RF-550A (Shimazu, Japan) at […]. All data were corrected for losses.
# TMV-infected NN tobacco [4] = assay: Induction of HR by EDTA and DCMU treatments, NN tobacco; format: in vivo, N. tabacum cv. Samsun NN; settings: 30° C., EDTA 5 mM, DCMU 100 mM, necrotic lesion, PR-1 expression, salicylic acid
# Protocol: as §8, §9, §10
# TMV-infected NN tobacco [5] = settings: AMD and heat (50° C., 2 minutes); cited from earlier work
# DS9 = DS9 transcription level and protein amount after AMD treatment (northern and western blotting analysis); format: in vivo, NN tobacco
# Protocol: Prior to the treatments, tobacco leaves were detached, inoculated with TMV (10 μg/ml in a phosphate buffer (pH 7.0)) or mock inoculated (buffer alone), and incubated at 30° C. for 40 hr. For reagent treatment, after the incubation, petioles of the leaves were put into vials containing 0.5 ml of an inhibitor solutions containing AMD (Sigma Chemical Co., St. Louis, Mo., USA) as a 10% (v/v) methanol aqueous solution. The solution was absorbed through the petioles, and sterile water was added to the vials within 1 hr. For heat treatment, a TMV-infected NN tobacco was subjected to heat shock by treating at 50° C. for 2 minutes. Each of the treated leaves was then further incubated at 30° C. Northern analysis and Western blot analysis were performed as described in Examples 4 and 6. In addition, those treated with water were used as controls.
# TMV-infected NN tobacco [6] = settings: AMD and heat (50° C., 2 minutes), 30° C.; cited from earlier work
# [7] = TMV-inoculated leaves at 30° C., EDTA 1 mM, 10 mM and 50 mM, other inhibitors 0.01 mM, 0.1 mM and 1 mM
compound,measurement,setting,value
N=C(N)c1ccc(CS(=O)(=O)F)cc1 [APMSF],"induction of necrotic lesion formation, Tobacco cv. nn",[1]; [7],−
same,"induction of necrotic lesion formation, Tobacco cv. NN",[2]; [7],−
O=C(O)CN(CCN(CC(=O)O)CC(=O)O)CC(=O)O [EDTA],induction of the HR in nn tobacco,TMV-infected NN tobacco [3],induced the HR
same,"induction of necrotic lesion formation, Tobacco cv. nn",[1]; in vivo,+
same,"induction of necrotic lesion formation, Tobacco cv. NN",[2]; in vivo,+
same,necrotic lesion in NN tobacco,[2]; in vivo,necrotic lesion was induced
same,induction of the HR in NN tobacco,TMV-infected NN tobacco [4],induced the HR
"Cc1c2oc3c(C)ccc(C(=O)N[C@@H]4C(=O)N[C@H](C(C)C)C(=O)N5CCC[C@H]5C(=O)N(C)CC(=O)N(C)[C@@H](C(C)C)C(=O)O[C@@H]4C)c3nc-2c(C(=O)N[C@@H]2C(=O)N[C@H](C(C)C)C(=O)N3CCC[C@H]3C(=O)N(C)CC(=O)N(C)[C@@H](C(C)C)C(=O)O[C@@H]2C)c(N)c1=O [AMD, actinomycin D] (I: T[dV]P[Sar][NMeV] / II: T[dV]P[Sar][NMeV]; ester I:1-I:C, II:1-II:C; linker I:N-II:N via Actinocin(9to1))","HR against TMV infection, nn tobacco",TMV-infected NN tobacco [5],the HR was also induced
same,DS9 transcription level,"DS9; TMV-infected NN tobacco, 30° C., northern analysis",decrease significantly
same,DS9 protein amount,"DS9; TMV-infected NN tobacco, 30° C., western blot",decrease significantly
same,"amount of the DS9 protein, mock infected leaf","DS9; leaf subjected to mock infection, treated with AMD and heat shock (HS)",remarkably decreased
same,"HR against TMV infection, NN tobacco",TMV-infected NN tobacco [6],the HR is induced
"O=c1oc(Cl)c(Cl)c2ccccc12 [3,4-D]","induction of necrotic lesion formation, Tobacco cv. nn",[1]; [7],−
same,"induction of necrotic lesion formation, Tobacco cv. NN",[2]; [7],−
CC(=O)N[C@@H](CC(C)C)C(=O)N[C@@H](CC(C)C)C(=O)N[C@H](C=O)CCCNC(=N)N [leupeptin],"induction of necrotic lesion formation, Tobacco cv. nn",[1]; [7],−
same,"induction of necrotic lesion formation, Tobacco cv. NN",[2]; [7],−
CC(C)C[C@H](NC(=O)[C@H]1O[C@@H]1C(=O)O)C(=O)NCCCCN=C(N)N [E-64],"induction of necrotic lesion formation, Tobacco cv. nn",[1]; [7],−
same,"induction of necrotic lesion formation, Tobacco cv. NN",[2]; [7],−
"CN(C)C(=O)Nc1ccc(Cl)c(Cl)c1 [DCMU, 3-(3,4-dichlorophenyl)-1,1-dimethylurea]",induction of the HR in nn tobacco,TMV-infected NN tobacco [3],induced the HR
same,induction of the HR in NN tobacco,TMV-infected NN tobacco [4],induced the HR
Aprotinin,"induction of necrotic lesion formation, Tobacco cv. nn",[1]; [7],−
same,"induction of necrotic lesion formation, Tobacco cv. NN",[2]; [7],−
